From patent US20130014428A1, “METHODS OF MONITORING AND CONTROLLING THE WALNUT TWIG BEETLE, PITYOPHTHORUS JUGLANDIS” (The United States of America as Represented by the …, priority 2011, published 2013)

Tests used:
[1] = test system: walnut twig beetle (WTB), Pityophthorus juglandis; assay: Example 1 Field Test 4: flight response to X with and without racemic chalcogran; format: in vivo; conditions: yellow sticky card traps, Davis CA
Method: Field Bioassays of Semiochemicals. To test the attractiveness of the various compounds of interest, some of the commercially available materials listed above were poured into 15 ml capped polyethylene bottles (Product #s A1-1050/002, A1-1055/002; Contech Enterprises Inc., Delta, British Columbia, Canada) and attached to yellow sticky card traps (Trécé, Adair, OK). In addition, synthesized (+) and (−) enantiomers of trans-conophthorin were tested in 400 μl polyethylene Eppendorf microcentrifuge tubes. Four field studies were conducted (Table 2) that tested the flight responses to: 3-methyl-2-buten-l-ol and related isomers (Field Test 1); 3-methyl-2-buten-l-ol with and without racemic trans-conophthorin (Field Test 2); 3-methyl-2-buten-l-ol with and without the purified enantiomers of trans-conophthorin (Field Test 3); and 3-methyl-2-buten-l-ol with and without racemic chalcogran (Field Test 4).
Statistical Analysis. Field Tests 1-4 were each analyzed for treatment effect by using Friedman's non-parametric analysis of variance. (See Zar, J. H. 2010. Biostatistical Analysis, 5th Ed. Pearson Prentice Hall, New Jersey). Males and females were subjected to separate analyses. All treatments within experiments yielding a significant treatment effect were compared by using an a posteriori Nemenyi test (Zar 2010) with experimentwise α=0.05. Sex ratios of responding WTB were determined using Cochran's method for unbiased sampling (See Cochran, W. G. 1977. Sampling Techniques, 3rd ed. John Wiley, New York), with 95% confidence intervals calculated by using the Clopper-Pearson method. (See Zar, J. H. 2010. Biostatistical Analysis, 5th Ed. Pearson Prentice Hall, New Jersey).

P. juglandis = assay: GC-EAD (electroantennal detection) of volatile extract; parameters: species or system Pityophthorus juglandis; conditions: extract of J. hindsii with male and female P. juglandis feeding 45 hr
Method: Gas Chromatography-Electroantennal Detection (GC-EAD). GC-EAD analysis was performed on the extract of walnut (Juglans hindsii) with male and female P. juglandis feeding for 45 hr (pentane extract (7)). The sample was analyzed with an HP5890 GC with the following conditions: DB-5 column 30 m×0.32, oven 50° C. for 1 min, temperature programmed at 20° C./min to a final temperature of 280° C.

WTB [2] = assay: Six release rate experiment, 4-unit Lindgren funnel traps; format: in vivo, Pityophthorus juglandis; conditions: for trap catches, female WTB / trap catches, male WTB: N=99
Method: In a separate experiment, the flight response of WTB to six release rates of 3-methyl-2-buten-1-ol was tested at the same location in early summer. The six release rates were: 1) 165 mg/d, from a capped 15 ml polyethylene bottle with a 0.48 cm hole drilled in the side of the cap, charged with 15 ml 3-methyl-2-buten-1-ol (Sigma-Aldrich); 2) 15-80 mg/d from the commercial LDPE plastic pouch (Contech); 3) 5 mg/d from a capped 15 ml polyethylene bottle charged with 15 ml 3-methyl-2-buten-1-ol (Sigma-Aldrich); 4) 5 mg/d from a capped 15 ml polyethylene bottle charged with 1 ml 3-methyl-2-buten-1-ol (Sigma-Aldrich); 5) 0.2 mg/d from a 400 μl closed Eppendorf polyethylene microcentrifuge tube charged with 300 μl 3-methyl-2-buten-1-ol (Sigma-Aldrich); and 6) an unbaited control. The 15 ml polyethylene bottles were purchased from Contech Enterprises (product #100000582/583); the 400 μl polyethylene Eppendorf microcentrifuge tubes were purchased from Evergreen Scientific (product #214-3417-020, Los Angeles, Calif.). These release devices were attached to 4-unit Lindgren funnel traps as described above. The six treatments were replicated in three spatial blocks and the treatments were re-randomized among the six trap stations in a block each time the traps were emptied (nearly every day). Statistical Analyses. Analysis of treatment effects for the pouch vs. bottle experiment was done by using a sign test. (See Zar, J. H. 2010. Biostatistical Analysis. 5th ed. Pearson Prentice Hall, Englewood Cliffs, N.J.) The other four experiments were analyzed for treatment effect by using Friedman's non-parametric analysis of variance. Id. In all experiments, males and females were analyzed separately. All treatments within experiments yielding a significant treatment effect were compared by using an a posteriori Nemenyi test with experimentwise α=0.05. Id. For all experiments, differences among proportions of female WTB responding to treatments were analyzed by comparing 95% confidence intervals determined with the Clopper-Pearson method. Id.

WTB [3] = assay: Example 2 Field Test 2: X in combination with DMNT, vittatol, rose oxides; format: in vivo, Pityophthorus juglandis; parameters: trap catches, male WTB / trap catches, female WTB: dose or concentration left out as unconfirmed; conditions: 4-unit Lindgren funnel traps
Method: At the same time and location, the flight response of WTB to 3-methyl-2-buten-1-ol ([…], Contech) was tested in combination with each of the following compounds: DMNT [4,8-dimethyl-1,3(E),7-nonatriene], vittatol [(3R,6R)-3-hydroxy-2,2,6-trimethyltetrahydropyran], (−)- and (+)-rose oxide [tetrahydro-4-methyl-2-(2-methylpropenyl)-2H-pyran] (Table 3, Field Test 2). DMNT and vittatol were synthesized and provided by Prof. Wittko Francke, University of Hamburg, Institute of Organic Chemistry; whereas (−)-rose oxide (>99% chemical purity, product #83917-1 ML, Fluka, Milwaukee, Wis.) and (+)-rose oxide (>99% chemical purity, product #83915-1 ML, Fluka) were purchased. The compounds besides 3-methyl-2-buten-1-ol were released from closed 400 μl Eppendorf microcentrifuge tubes (Evergreen) with loads of approximately 50 μl (DMNT); 20 mg (vittatol, solid at room temperature); and approx. 200 μl each of (−)-and (+)-rose oxide. The six treatments were replicated in three spatial blocks and the treatments were re-randomized among the six trap stations in a block each time the traps were emptied (nearly every day).
Statistical Analyses. Analysis of treatment effects for the pouch vs. bottle experiment was done by using a sign test. (See Zar, J. H. 2010. Biostatistical Analysis. 5th ed. Pearson Prentice Hall, Englewood Cliffs, N.J.) The other four experiments were analyzed for treatment effect by using Friedman's non-parametric analysis of variance. Id. In all experiments, males and females were analyzed separately. All treatments within experiments yielding a significant treatment effect were compared by using an a posteriori Nemenyi test with experimentwise α=0.05. Id. For all experiments, differences among proportions of female WTB responding to treatments were analyzed by comparing 95% confidence intervals determined with the Clopper-Pearson method. Id.

[4] = about one month late summer, N=13

With `CC(C)=CCO` [X, 3-methyl-2-buten-1-ol] the “proportion of females responding” value [1] was 0.69, the “trap catches, female WTB” value [1, 4] was 94 and the “trap catches, male WTB” value [1, 4] was 43. For the same compound, the “antennal activity by GC-EAD” value (P. juglandis) was “antenally active”, the “proportion of females responding” value (WTB [2]; 0.2 mg/d) was 0.66 and the “trap catches, female WTB” value (WTB [2]; 0.2 mg/d) was 623. For the same compound, the “trap catches, male WTB” value (WTB [2]; 0.2 mg/d) was 323, the “proportion of females responding” value (WTB [2]; 5 mg/d (1 ml load)) was 0.71 and the “trap catches, female WTB” value (WTB [2]; 5 mg/d (1 ml load)) was 1084. The “trap catches, male WTB” value (WTB [2]; 5 mg/d (1 ml load)) was 453, the “proportion of females responding” value (WTB [2]; 5 mg/d (15 ml load)) was 0.72 and the “trap catches, female WTB” value (WTB [2]; 5 mg/d (15 ml load)) was 1534. For the same compound, the “trap catches, male WTB” value (WTB [2]; 5 mg/d (15 ml load)) was 608, the “proportion of females responding” value (WTB [2]; 165 mg/d) was 0.75 and the “trap catches, female WTB” value (WTB [2]; 165 mg/d (15 ml load)) was 612. For the same compound, the “trap catches, male WTB” value (WTB [2]; 165 mg/d (15 ml load)) was 205, the “proportion of females responding” value (WTB [2]; 15-80 mg/d) was 0.77 and the “trap catches, female WTB” value (WTB [2]; 15-80 mg/d) was 934. The “trap catches, male WTB” value (WTB [2]; 15-80 mg/d) was 285, the “release rate giving highest flight response” value (WTB [2]; six release rates compared) was “highest response for both sexes was to the 5 mg/d release loaded with 15 ml of pheromone” and the “proportion of females responding” value (WTB [3]) was 0.70. The “trap catches, female WTB” value (WTB [3]; N=42) was 100 and the “trap catches, male WTB” value (WTB [3]; N=42) was 43.
